We go through 1 compound from patent publication US20140179766A1, “IDENTIFICATION OF THROMBOSIS OR BLEEDING RISK IN AN INDIVIDUAL WITH AND WITHOUT ANTI-PLATELET THERAPY” (ROYAL COLLEGE OF SURGEONS IN IRELAND, priority 2011, published 2014).

The test system of the experiment is 11-dehydro-thromboxane B2 (TxM). Description: Urinary TxM (11-dehydro-thromboxane B2) by liquid chromatography/tandem mass spectrometry in participants of the HACVD sub-study of ASCOT. The class given is in vivo, human. The conditions noted are these: SNP association with TxM seen only in patients not taking aspirin. Here is the method: The genetic determinants of urinary TxM were investigated. 540 participants in the Hypertension Associated Cardiovascular Disease (HACVD) sub-study of ASCOT gave urine samples at two separate time-points. TxM was measured using liquid chromatography/tandem mass spectrometry, expressed as pg/mg creatinine to correct for urine concentration. All subjects were genotyped on the CVD50K chip, a cardiovascular-specific chip with >50,000 SNPs. Usual quality control measures were applied. Linear regression analysis was performed, assuming an additive genetic model, adjusting for the covariates; age, sex, smoking habit, diabetes, systolic blood pressure, BMI, HDL, LDL, aspirin and anti-hypertensive regimen.
Most interesting of all was the observation that the association of TxM with the 21 PPARGC1β gene SNPs was almost totally driven by the patients not taking aspirin (beta-values range; +184-+392 pg/mg p-values range; 0.00002-0.06), whilst associations between these same 21 SNPs and TxM amongst aspirinated subjects were in large part not statistically significant (beta-values range; −10-+134 pg/mg p-values range; 0.02-0.97).

Molecules are shown by their SMILES.

Turning to `CC(=O)Oc1ccccc1C(=O)O` [aspirin], the “Effect on excess production of thromboxane in carriers of PPARGC1β genetic variants” value was “completely, or in large part, blocks the excess production of thromboxane”.
